The values below come from PubChem BioAssay (NCI).

What all share (test): NCI tumour cell line growth inhibition, 48 h
Experiment [1] concerns RXF 393 renal.
Experiment [2] has as its system UACC-62 melanoma.
Experiment [3] deals with UACC-257 melanoma.
The subject of experiment [4] is OVCAR-8 ovarian.
In experiment [5] the test system is NCI-H23 lung.
Experiment [6] deals with OVCAR-3 ovarian.
For experiment [7], the system named is CAKI-1 renal.
For experiment [8], the system named is SR leukemia.
The subject of experiment [9] is IGROV1 ovarian.
For experiment [10], the system named is HL-60(TB) leukemia.
In experiment [11] the test system is ACHN renal.
In experiment [12] the test system is MDA-MB-231 breast.

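These data come from cells grown in 96-well plates and exposed to compound for 48 hours at five concentrations. The concentration for full growth arrest is given as TGI.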

Take `Cc1cc(C)c2c(n1)S(=O)(=O)N(CCCN1CCN(c3cccc(C(F)(F)F)c3)CC1)/C(=C(\O)c1ccc(Cl)cc1)C2=O`: the TGI in experiment [1] is 19.1 µM; in experiment [2] it was 18.3 µM; in [3], 8.49 µM; in [4] it was 29.5 µM; in [5], 14 µM; in experiment [6], 18.9 µM. Further, the TGI in [7] is 8.77 µM; in experiment [8] it was > 100 µM; in experiment [9], 16.2 µM; in experiment [10], 6.15 µM; in experiment [11], 13.8 µM; in experiment [12] it was 18.7 µM.
Take `N#Cc1c2c(c(Nc3ccc(F)cc3)n3c1nc1ccccc13)CCC2`: the TGI turned out to be 7.9 µM in experiment [1]; 25.1 µM in experiment [2]; 24.1 µM in experiment [3]; 5.83 µM in experiment [4]; 17.6 µM in experiment [5]; 18.5 µM in [6]. Besides, the TGI is 3.5 µM in [7]; > 100 µM in [8]; 11.1 µM in [9]; > 100 µM in experiment [10]; 5.8 µM in experiment [11]; 11.3 µM in [12].
On to `O=C1N[C@@H]2c3c(csc3Br)C(=O)[C@@H]2O1`, for which the TGI in experiment [1] was 43.7 µM; in experiment [2] it was > 100 µM; in experiment [3] it was 58.9 µM; in [4] it was 57.6 µM; in [5], > 100 µM; in experiment [6], 47.8 µM. For the same molecule, the TGI was 43.1 µM in experiment [7]; 74.1 µM in [8]; > 100 µM in experiment [9]; 64.9 µM in experiment [10]; > 100 µM in [11]; > 100 µM in experiment [12].
`Cc1cccc(C[C@@]2(SCc3ccccc3)C(C)(C)[C@@H]3CC[C@@]2(C)C3)n1`: the TGI in [1] was found to be 30.9 µM; in experiment [2], 35.5 µM; in experiment [3], 29.9 µM; in [4] it was 30 µM; in experiment [5], 31.4 µM; in experiment [6], 29.5 µM. For the same molecule, the TGI in experiment [7] came out at 48.1 µM; in experiment [8], 31.9 µM; in experiment [9], 28.7 µM; in experiment [10], 29.7 µM; in experiment [11], 28.8 µM; in [12], 28.5 µM.
Turning to `CC1=CC=CC(C)(C)CC1(O[Si](C)(C)C)C(F)(F)F` (stereo not given), the TGI in experiment [1], in [2], in [3], in experiment [4], in experiment [5] and in experiment [6] was > 100 µM in each case. Further, the TGI in [7], in [8], in [9], in [10], in [11] and in experiment [12] was > 100 µM in each case.
In the case of `CCOP(=O)(OCC)/C(F)=C/c1ccccc1`, the TGI in experiment [1], in experiment [2], in experiment [3], in experiment [4], in [5] and in experiment [6] was > 100 µM throughout. Moreover, the TGI in [7], in [8], in [9], in experiment [10], in [11] and in experiment [12] was > 100 µM each time.
On to `COc1ccc2c(c1)C(=O)c1ccccc1C2`, for which the TGI in experiment [1] is 28.4 µM; in experiment [2] it was > 100 µM; in experiment [3] it was > 100 µM; in experiment [4], > 100 µM; in [5], > 100 µM; in [6] it was > 100 µM. The TGI in [7] is > 100 µM; in experiment [8], > 100 µM; in experiment [9], > 100 µM; in [10] it was > 100 µM; in experiment [11], > 100 µM; in experiment [12], 76.3 µM.
As to `O=C(O)c1ccc(NS(=O)(=O)Cc2ccccc2)cc1`, the TGI in [1], in experiment [2], in experiment [3], in experiment [4], in experiment [5] and in experiment [6] was > 100 µM each time. For the same molecule, the TGI in experiment [7], in [8], in [9], in experiment [10], in [11] and in experiment [12] was > 100 µM each time.
As to `C/C(=N/NC(=S)Nc1cccc(C)c1)c1ccccn1`, the TGI in experiment [1] came out at 3.55 µM; in experiment [2], 2.92 µM; in [3], 4.44 µM; in experiment [4] it was 2.33 µM; in [5], 9.92 µM; in experiment [6], 0.118 µM. Also, the TGI was 9.07 µM in [7]; 2.92 µM in experiment [8]; 4.68 µM in experiment [9]; < 0.158 µM in experiment [10]; 6.83 µM in [11]; 2.45 µM in experiment [12].
As for `CN(O)C(=O)Cc1ccc(OCc2cccc(Cl)c2)cc1`, the TGI in [1], in experiment [2], in experiment [3], in experiment [4], in experiment [5] and in experiment [6] was > 100 µM each time. The TGI in experiment [7], in experiment [8], in [9], in experiment [10], in experiment [11] and in [12] was > 100 µM each time.
